This passage reports DC50 results from patent US20250388565A1, “ESTROGEN RECEPTOR ALPHA DEGRADERS AND METHODS OF USE THEREOF” (Relay Therapeutics, Inc., priority 2022, published 2025).

This assay has as its target T1, ERα protein (HiBiT-tagged) in ESR1_HiBiT KI MCF7 cells (Homo sapiens, UniProt P03372).
T1 sequence (P03372 1-595): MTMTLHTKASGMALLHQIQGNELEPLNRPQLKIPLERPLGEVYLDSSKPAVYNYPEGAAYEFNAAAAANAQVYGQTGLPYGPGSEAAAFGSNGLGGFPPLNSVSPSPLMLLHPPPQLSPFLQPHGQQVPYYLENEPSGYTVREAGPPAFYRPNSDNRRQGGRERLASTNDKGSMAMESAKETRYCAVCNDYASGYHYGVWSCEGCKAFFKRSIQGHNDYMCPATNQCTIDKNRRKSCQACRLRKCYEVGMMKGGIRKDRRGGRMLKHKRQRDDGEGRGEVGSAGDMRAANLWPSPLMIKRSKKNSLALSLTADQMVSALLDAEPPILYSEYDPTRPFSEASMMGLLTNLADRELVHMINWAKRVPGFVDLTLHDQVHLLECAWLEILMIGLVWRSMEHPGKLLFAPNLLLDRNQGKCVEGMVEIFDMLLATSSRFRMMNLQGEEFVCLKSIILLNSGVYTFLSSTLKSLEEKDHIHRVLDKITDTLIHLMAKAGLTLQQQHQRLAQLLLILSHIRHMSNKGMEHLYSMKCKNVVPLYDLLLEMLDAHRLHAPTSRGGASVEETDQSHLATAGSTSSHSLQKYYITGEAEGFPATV
Nature of the assay: Nano Glo HiBiT Lytic Degradation Assay. The assay is classed as cell-based. To be noted: 6 hours with compound, 14-point dose response 1:3, bell-shape curve fit, half-maximal effect of first Hill model, read-out: MCF7 ESR1 HiBiT - (DC50). In outline:
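HiBiT-tagged endogenous ERα remaining in MCF7 knock-in cells was quantified by lytic luminescence after a 6 h treatment. DC50 values derive from a bell-shaped curve, taken at the first Hill component's half-maximal effect.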
On the technique in general: HiBiT is a short tag that completes a luciferase, so light tracks the accessible tagged protein.

For orientation: DC50 means the concentration giving 50% degradation. On to `O=C1CC[C@H](N2Cc3cc(N4CCN(CC5CCN(c6ccc([C@@H]7c8ccc(O)cc8CC[C@@H]7c7cccc(F)c7)cc6)CC5)CC4)ccc3C2=O)C(=O)N1` (single isomer, unassigned) [II-26], for which the half-maximal degradation concentration (DC50) was at least 10000 nM.
For `O=C1CC[C@H](N2Cc3cc(N4CCN(CC5CCN(c6ccc([C@H]7c8ccc(O)cc8CC[C@H]7c7cccc(F)c7)cc6)CC5)CC4)ccc3C2=O)C(=O)N1` (single isomer, unassigned) [II-27] the value was 0.82 nM; for `Cc1cccc([C@H]2CCc3cc(O)ccc3[C@H]2c2ccc(N3CCC(CN4CCN(c5ccc6c(c5)CN([C@H]5CCC(=O)NC5=O)C6=O)CC4)CC3)cc2)c1` (single isomer, unassigned) [II-28], 20 nM.
Then `Cc1cccc([C@@H]2CCc3cc(O)ccc3[C@@H]2c2ccc(N3CCC(CN4CCN(c5ccc6c(c5)CN([C@H]5CCC(=O)NC5=O)C6=O)CC4)CC3)cc2)c1` (single isomer, unassigned) [II-29], with 1.24 nM; and `O=C1CC[C@H](N2Cc3cc(N4CCN(C[C@@H]5CCN(c6ccc([C@@H]7c8ccc(O)cc8CC[C@@H]7c7ccccc7)cc6)C5)CC4)ccc3C2=O)C(=O)N1` (single isomer, unassigned) [II-32], with at least 10000 nM.
Take `O=C1CC[C@H](N2Cc3cc(N4CCN(C[C@@H]5CCN(c6ccc([C@H]7c8ccc(O)cc8CC[C@H]7c7ccccc7)cc6)C5)CC4)ccc3C2=O)C(=O)N1` (single isomer, unassigned) [II-33]: the half-maximal degradation concentration (DC50) came to 2 nM.
Then `Cc1ccccc1[C@H]1CCc2cc(O)ccc2[C@H]1c1ccc(N2CCC(CN3CCN(c4ccc5c(c4)CN([C@H]4CCC(=O)NC4=O)C5=O)CC3)CC2)cc1` (single isomer, unassigned) [II-34], with 40 nM; and `Cc1ccccc1[C@@H]1CCc2cc(O)ccc2[C@@H]1c1ccc(N2CCC(CN3CCN(c4ccc5c(c4)CN([C@H]4CCC(=O)NC4=O)C5=O)CC3)CC2)cc1` (single isomer, unassigned) [II-35], with 0.34 nM.
For `Cc1ccc([C@H]2CCc3cc(O)ccc3[C@H]2c2ccc(N3CCC(CN4CCN(c5ccc6c(c5)CN([C@H]5CCC(=O)NC5=O)C6=O)CC4)CC3)cc2)cc1` (single isomer, unassigned) [II-36] the value was 0.93 nM; for `Cc1ccc([C@@H]2CCc3cc(O)ccc3[C@@H]2c2ccc(N3CCC(CN4CCN(c5ccc6c(c5)CN([C@H]5CCC(=O)NC5=O)C6=O)CC4)CC3)cc2)cc1` (single isomer, unassigned) [II-37], 46 nM.
Then `O=C1CCC(N2Cc3cc(N4CCN(CC5CCN(c6ccc([C@@H]7c8ccc(O)cc8CC[C@@H]7c7ccccc7)cc6)CC5)CC4)c(F)cc3C2=O)C(=O)N1` (single isomer, unassigned) [II-38], with 1 nM; and `O=C1CCC(N2Cc3cc(N4CC5(CN(CC6CCN(c7ccc([C@@H]8c9ccc(O)cc9CC[C@@H]8c8ccccc8)cc7)CC6)C5)C4)ccc3C2=O)C(=O)N1` (single isomer, unassigned) [II-39], with at least 10000 nM; and `O=C1CC[C@H](N2Cc3cc(N4CCN(CC5CCN(c6ccc([C@@H]7c8ccc(O)cc8CC[C@@H]7c7ccc(C(F)(F)F)cc7)cc6)CC5)CC4)ccc3C2=O)C(=O)N1` (single isomer, unassigned) [II-40], with at least 10000 nM.
`O=C1CC[C@H](N2Cc3cc(N4CCN(CC5CCN(c6ccc([C@H]7c8ccc(O)cc8CC[C@H]7c7ccc(C(F)(F)F)cc7)cc6)CC5)CC4)ccc3C2=O)C(=O)N1` (single isomer, unassigned) [II-41]: the DC50 is 2 nM.
For `Cc1cc([C@@H]2c3ccc(O)cc3CC[C@@H]2c2ccccc2)ccc1N1CCC(CN2CCN(c3ccc4c(c3)CN([C@H]3CCC(=O)NC3=O)C4=O)CC2)CC1` (single isomer, unassigned) [II-42] the value was at least 10000 nM; for `Cc1cc([C@H]2c3ccc(O)cc3CC[C@H]2c2ccccc2)ccc1N1CCC(CN2CCN(c3ccc4c(c3)CN([C@H]3CCC(=O)NC3=O)C4=O)CC2)CC1` (single isomer, unassigned) [II-43], 2 nM.
Consider `CC(C1CCN(c2ccc([C@@H]3c4ccc(O)cc4CC[C@@H]3c3ccccc3)cc2)CC1)N1CCN(c2ccc3c(c2)CN([C@H]2CCC(=O)NC2=O)C3=O)CC1` (single isomer, unassigned) [II-44], for which the DC50 came out at 2 nM.
Then `O=C1CC[C@H](N2Cc3cc(N4CCN(CC5CC6CCC(C5)N6c5ccc([C@@H]6c7ccc(O)cc7CC[C@@H]6c6ccccc6)cc5)CC4)ccc3C2=O)C(=O)N1` (single isomer, unassigned) [II-47], with 2 nM; and `C[C@@H]1C[C@H](CN2CCN(c3ccc4c(c3)CN(C3CCC(=O)NC3=O)C4=O)CC2)CCN1c1ccc([C@@H]2c3ccc(O)cc3CC[C@@H]2c2ccccc2)cc1` (single isomer, unassigned) [II-48], with 1 nM.
In the case of `C[C@H]1C[C@@H](CN2CCN(c3ccc4c(c3)CN(C3CCC(=O)NC3=O)C4=O)CC2)CCN1c1ccc([C@@H]2c3ccc(O)cc3CC[C@@H]2c2ccccc2)cc1` (single isomer, unassigned) [II-49], the half-maximal degradation concentration (DC50) is 6 nM.
Then `O=C1CC[C@H](N2Cc3cc(N4CCN(CC5CC6CCC(C5)N6c5ccc([C@H]6c7ccc(O)cc7CC[C@H]6c6ccccc6)cc5)CC4)ccc3C2=O)C(=O)N1` (single isomer, unassigned) [II-56], with 0.006 nM; and `C[C@]1(N2Cc3cc(N4CCN(CC5CCN(c6ccc([C@@H]7c8ccc(O)cc8CC[C@@H]7c7ccccc7)cc6)CC5)CC4)ccc3C2=O)CCC(=O)NC1=O` (single isomer, unassigned) [II-57], with at least 10000 nM.
Then `C[C@@]1(N2Cc3cc(N4CCN(CC5CCN(c6ccc([C@@H]7c8ccc(O)cc8CC[C@@H]7c7ccccc7)cc6)CC5)CC4)ccc3C2=O)CCC(=O)NC1=O` (single isomer, unassigned) [II-58], with at least 10000 nM; and `O=C1CCC(N2Cc3cc(N4CCC(CN5CCC(c6ccc([C@H]7c8ccc(O)cc8CC[C@H]7c7ccccc7)cc6)CC5)CC4)ccc3C2=O)C(=O)N1` (single isomer, unassigned) [II-61], with 0.08 nM; and `CC(C1CCN(c2ccc([C@@H]3c4ccc(O)cc4CC[C@@H]3c3ccccc3)cc2)CC1)N1CCN(c2ccc3c(c2)CN([C@@H]2CCC(=O)NC2=O)C3=O)CC1` (single isomer, unassigned) [II-67], with 47 nM.
Then `C[C@H](C1CCN(c2ccc([C@@H]3c4ccc(O)cc4CC[C@@H]3c3ccccc3)cc2)CC1)N1CCN(c2ccc3c(c2)CN(C2CCC(=O)NC2=O)C3=O)CC1` (single isomer, unassigned) [II-69], with 0.51 nM; and `C[C@@H](C1CCN(c2ccc([C@@H]3c4ccc(O)cc4CC[C@@H]3c3ccccc3)cc2)CC1)N1CCN(c2ccc3c(c2)CN(C2CCC(=O)NC2=O)C3=O)CC1` (single isomer, unassigned) [II-70], with 5 nM.
`O=C1CCC(N2Cc3cc([C@@H]4CCN(CC5CCN(c6ccc([C@@H]7c8ccc(O)cc8CC[C@@H]7c7ccccc7)cc6)CC5)C[C@H]4F)ccc3C2=O)C(=O)N1` (single isomer, unassigned) [II-88]: the half-maximal degradation concentration (DC50) worked out at 2 nM.
Then `O=C1CCC(N2Cc3cc([C@H]4CCN(CC5CCN(c6ccc([C@@H]7c8ccc(O)cc8CC[C@@H]7c7ccccc7)cc6)CC5)C[C@@H]4F)ccc3C2=O)C(=O)N1` (single isomer, unassigned) [II-89], with 1100 nM.
For `O=C1CCC(N2Cc3cc([C@@H]4CCN(CC5CCN(c6ccc([C@@H]7c8ccc(O)cc8CC[C@@H]7c7ccccc7)cc6)CC5)CC4(F)F)ccc3C2=O)C(=O)N1` (single isomer, unassigned) [II-91] the value was 20 nM.
`O=C1CCC(N2Cc3cc([C@H]4CCN(CC5CCN(c6ccc([C@@H]7c8ccc(O)cc8CC[C@@H]7c7ccccc7)cc6)CC5)CC4(F)F)ccc3C2=O)C(=O)N1` (single isomer, unassigned) [II-92]: the half-maximal degradation concentration (DC50) is 6 nM.
As for `O=C1CC[C@H](N2Cc3cc(N4CC5(CCN(CC6CCN(c7ccc([C@@H]8c9ccc(O)cc9CC[C@@H]8c8ccccc8)cc7)CC6)CC5)C4)ccc3C2=O)C(=O)N1` (single isomer, unassigned) [II-95], the half-maximal degradation concentration (DC50) was 0.83 nM.
Then `O=C1CC[C@H](N2Cc3cc(N4CC5(CCN(CC6CCN(c7ccc([C@H]8c9ccc(O)cc9CC[C@H]8c8ccccc8)cc7)CC6)CC5)C4)ccc3C2=O)C(=O)N1` (single isomer, unassigned) [II-96], with at least 10000 nM.
For `O=C1CCC(N2Cc3cc([C@@H]4CCN(CC5CCN(c6ccc([C@@H]7c8ccc(O)cc8CC[C@@H]7c7ccccc7)cc6)CC5)C[C@H]4O)ccc3C2=O)C(=O)N1` (single isomer, unassigned) [II-106] the value was 2.82 nM; for `O=C1CCC(N2Cc3cc([C@H]4CCN(CC5CCN(c6ccc([C@@H]7c8ccc(O)cc8CC[C@@H]7c7ccccc7)cc6)CC5)C[C@@H]4O)ccc3C2=O)C(=O)N1` (single isomer, unassigned) [II-107], 3.91 nM.
